{
  "source": "patent US10745399B2",
  "about": "(priority 2015, dated 2020)",
  "note": "pIC50: −log10 of the molar value.",
  "data": [
    {"tested_on": "CHK2 phosphorylation (phospho-Thr68) in HCT116 cells", "experiment": "Cellular pCHK2 assay, bleomycin-induced phosphorylation of CHK2 (phospho-Thr68), immunofluorescence high content", "format": "cell-based", "conditions": "Homo sapiens, HCT-116; HCT116 cells, 10 μM bleomycin, 4 h; read-out: IC50 (pCHK2)", "text": "For the identification of substances which inhibit the phosphorylation of the protein kinase CHK2 at the amino acid threonine 68, an immunofluorescence-based “high content” analysis assay was used in HCT116 cells.\nIn vitro cell-based immunofluorescence assay for the identification of inhibitors of bleomycin-induced phosphorylation of CHK2 (phospho-Thr68) in the human colon carcinoma cell line HCT116:\nHCT116 cells are sown out in a defined cell density in 384-well plates in culture medium (DMEM high glucose, 2 mM GlutaMax, 1 mM Na pyruvate, 10% FCS) and incubated overnight at 37° C. and 10% of CO2. On the following day, the test substances are added in a defined concentration range (1 nM to 30 μM) in combination with 10 μM bleomycin, where the concentration of the solvent DMSO is kept constant at 0.5%. After incubation for four hours at 37° C. and 10% of CO2, the cells are fixed (5 min, 4% formaldehyde in PBS), permeabilised (10 min, 0.2% Triton X-100 in PBS) and, after blocking of nonspecific binding sites (10% goat serum, 1% BSA in PBS), incubated overnight at 4° C. with a specific anti-pCHK2 antibody (cell signalling #2661). pCHK2 (Thr68) is determined using an Alexa488-labelled secondary anti-rabbit IgG antibody. Parallel staining of DNA with propidium iodide enables determination of the cell count. The pCHK2 signal is detected using a high-content imager (Molecular Devices IMX Ultra) and automatic image analysis using the MetaXpress software belonging to the instrument. The number of cell nuclei which have a pCHK2 signal above a defined background is determined.", "values": [
      {"smiles": "COc1cc2ncc3c(c2cc1-c1cnn(C)c1)n(-c1ncc(Cl)cc1F)c(=O)n3C", "note": "[compound 119, 1-(5-Chloro-3-fluoropyridin-2-yl)-7-methoxy-3-methyl-8-(1-methyl-1H-pyrazol-4-yl)-1,3-dihydroimidazo[4,5-c]-quinolin-2-one]", "pIC50": "> 6.70"},
      {"smiles": "COc1cnc(-n2c(=O)n(C)c3cnc4cc(OC)c(-c5cn(C)nn5)cc4c32)c(F)c1", "note": "[compound 133, 1-(3-Fluoro-5-methoxy-pyridin-2-yl)-7-methoxy-3-methyl-8-(1-methyl-1H-1,2,3-triazol-4-yl)-1,3-dihydroimidazo[4,5-c] quinolin-2-one]", "pIC50": "6.00 to 6.70"},
      {"smiles": "COc1cc2ncc3c(c2cc1-c1cnn(C(F)F)c1)n(-c1c(F)cncc1OC)c(=O)n3C", "note": "[compound 143, 8-(1-Difluoromethyl-1H-pyrazol-4-yl)-1-(3-fluoro-5-methoxypyridin-4-yl)-7-methoxy-3-methyl-1,3-dihydroimidazo[4,5-c] quinolin-2-one]", "pIC50": "6.00 to 6.70"},
      {"smiles": "COc1cc2ncc3c(c2cc1-c1cnn(C2CNC2)c1)n(-c1c(F)cncc1OC)c(=O)n3C", "note": "[compound 208, 8-[1-(Azetidin-3-yl)-1H-pyrazol-4-yl]-1-(3-fluoro-5-methoxypyridin-4-yl)-7-methoxy-3-methyl-1H,2H,3H-imidazo[4,5-c]-quinolin-2-one]", "pIC50": "5.70 to 6.00"},
      {"smiles": "CCn1cc(-n2c(=O)n(C)c3cnc4cc(OC)c(-c5cnn(C)c5)cc4c32)c(C)n1", "note": "[compound 130, 1-(1-Ethyl-3-methyl-1H-pyrazol-4-yl)-7-methoxy-3-methyl-8-(1-methyl-1H-pyrazol-4-yl)-1,3-dihydro-imidazo[4,5-c]quinolin-2-one]", "pIC50": "6.00 to 6.70"},
      {"smiles": "CCn1cc(-c2cc3c(cc2OC)ncc2c3n(-c3c(F)cncc3OC)c(=O)n2C)c(C)n1", "note": "[compound 142, 8-(1-Ethyl-3-methyl-1H-pyrazol-4-yl)-1-(3-fluoro-5-methoxypyridin-4-yl)-7-methoxy-3-methyl-1,3-dihydroimidazo[4,5-c] quinolin-2-one]", "pIC50": "6.00 to 6.70"},
      {"smiles": "CCc1cnccc1-n1c(=O)n(C)c2cnc3cc(OC)c(-c4cnn(C)c4)cc3c21", "note": "[compound 156, 1-(3-Ethylpyridin-4-yl)-7-methoxy-3-methyl-8-(1-methyl-1H-pyrazol-4-yl)-1,3-dihydroimidazo[4,5-c] quinolin-2-one]", "pIC50": "6.00 to 6.70"},
      {"smiles": "COc1cnc(-n2c(=O)n(C)c3cnc4cc(OC)c(-c5ccc6nc(C)[nH]c6c5)cc4c32)c(F)c1", "note": "[compound 144, 1-(3-Fluoro-5-methoxy-pyridin-2-yl)-7-methoxy-3-methyl-8-(2-methyl-3H-benzoimidazol-5-yl)-1,3-dihydroimidazo[4,5-c]-quinolin-2-one]", "pIC50": "6.00 to 6.70"},
      {"smiles": "COc1cc2ncc3c(c2cc1-c1cc(N)n[nH]1)n(-c1ncccc1F)c(=O)n3C", "note": "[compound 65, 8-(3-Amino-1H-pyrazol-5-yl)-1-(3-fluoro-2-pyridyl)-7-methoxy-3-methyl-imidazo-[4,5-c]quinolin-2-one]", "pIC50": "6.00 to 6.70"},
      {"smiles": "COc1cc2ncc3[nH]c(=O)n(-c4c(F)cncc4OC)c3c2cc1-c1cnn(C)c1", "note": "[compound 116, 1-(3-Fluoro-5-methoxy-pyridin-4-yl)-7-methoxy-8-(1-methyl-1H-pyrazol-4-yl)-1,3-dihydroimidazo[4,5-c]-quinolin-2-one]", "pIC50": "5.70 to 6.00"},
      {"smiles": "COc1cc2ncc3c(c2cc1-c1cn(C)nn1)n(-c1ccncc1F)c(=O)n3C", "note": "[compound 64, 1-(3-Fluoropyridin-4-yl)-7-methoxy-3-methyl-8-(1-methyl-1H-1,2,3-triazol-4-yl)-1,3-dihydroimidazo-[4,5-c]quinolin-2-one]", "pIC50": "6.00 to 6.70"},
      {"smiles": "COc1cc2ncc3c(c2cc1-c1cnn[nH]1)n(-c1c(F)cncc1OC)c(=O)n3C", "note": "[compound 134, 1-(3-Fluoro-5-methoxy-pyridin-4-yl)-7-methoxy-3-methyl-8-(3H-1,2,3-triazol-4-yl)-1,3-dihydroimidazo-[4,5-c]quinolin-2-one]", "pIC50": "6.00 to 6.70"},
      {"smiles": "COc1cc2ncc3c(c2cc1-c1cnn(C)c1)n(-c1ccc(C#N)cn1)c(=O)n3C", "note": "[Compound Example 48, 6-[7-Methoxy-3-methyl-8-(1-methyl-1H-pyrazol-4-yl)-2-oxo-2,3-dihydroimidazo-[4,5-c]quinolin-1-yl]-nicotinonitrile]", "pIC50": "6.00 to 6.70"},
      {"smiles": "COc1cc2ncc3c(c2cc1-c1cnn(C)c1)n(-c1c(F)cncc1OC(F)F)c(=O)n3C", "note": "[compound 146, 1-(3-Difluoromethoxy-5-fluoropyridin-4-yl)-7-methoxy-3-methyl-8-(1-methyl-1H-pyrazol-4-yl)-1,3-dihydroimidazo[4,5-c]-quinolin-2-one]", "pIC50": "> 6.70"},
      {"smiles": "COc1cc2ncc3c(c2cc1-c1cn(C)nn1)n(-c1cn(C)nc1C)c(=O)n3C", "note": "[Compound Example 42, 1-(1,3-Dimethyl-1H-pyrazol-4-yl)-7-methoxy-3-methyl-8-(1-methyl-1H-1,2,3-triazol-4-yl)-1,3-dihydroimidazo-[4,5-c]quinolin-2-one]", "pIC50": "6.00 to 6.70"},
      {"smiles": "CCn1cc(-c2cc3c(cc2OC)ncc2c3n(-c3ccncc3OC)c(=O)n2C)cn1", "note": "[compound 104, 8-(1-Ethyl-1H-pyrazol-4-yl)-7-methoxy-1-(3-methoxy-pyridin-4-yl)-3-methyl-1,3-dihydroimidazo[4,5-c] quinolin-2-one]", "pIC50": "6.00 to 6.70"},
      {"smiles": "COc1cc2ncc3c(c2cc1-c1cnn(C)c1)n(-c1ncc(OCC2CN(C)C2)cc1F)c(=O)n3C", "note": "[compound 207, 1-[3-Fluoro-5-(1-methyl-azetidin-3-ylmethoxy)-pyridin-2-yl]-7-methoxy-3-methyl-8-(1-methyl-1H-pyrazol-4-yl)-1,3-dihydro-imidazo[4,5-c]quinolin-2-one]", "pIC50": "6.00 to 6.70"},
      {"smiles": "COc1cnc(-n2c(=O)[nH]c3cnc4cc(OC)c(-c5cnn(C)c5)cc4c32)c(F)c1", "note": "[compound 115, 1-(3-Fluoro-5-methoxy-pyridin-2-yl)-7-methoxy-8-(1-methyl-1H-pyrazol-4-yl)-1,3-dihydroimidazo[4,5-c]-quinolin-2-one]", "pIC50": "6.00 to 6.70"},
      {"smiles": "CCOc1cnc(-n2c(=O)n(C)c3cnc4cc(OC)c(-c5cnn(C)c5)cc4c32)c(F)c1", "note": "[compound 113, 1-(5-Ethoxy-3-fluoropyridin-2-yl)-7-methoxy-3-methyl-8-(1-methyl-1H-pyrazol-4-yl)-1,3-dihydroimidazo[4,5-c]-quinolin-2-one]", "pIC50": "> 6.70"},
      {"smiles": "CCn1cc(-c2cc3c(cc2OC)ncc2c3n(-c3ncc(OC)cc3F)c(=O)n2C)cn1", "note": "[compound 111, 8-(1-Ethyl-1H-pyrazol-4-yl)-1-(3-fluoro-5-methoxy-pyridin-2-yl)-7-methoxy-3-methyl-1,3-dihydroimidazo-[4,5-c]quinolin-2-one]", "pIC50": "6.00 to 6.70"},
      {"smiles": "COc1cc2ncc3[nH]c(=O)n(-c4c(F)cncc4OC)c3c2cc1-c1cn(C)nc1C", "note": "[compound 129, 8-(1,3-Dimethyl-1H-pyrazol-4-yl)-1-(3-fluoro-5-methoxy-pyridin-4-yl)-7-methoxy-1,3-dihydroimidazo[4,5-c]-quinolin-2-one]", "pIC50": "5.70 to 6.00"},
      {"smiles": "COc1cc2ncc3c(c2cc1-c1ccn[nH]1)n(-c1c(F)cncc1OC)c(=O)n3C", "note": "[compound 124, 1-(3-Fluoro-5-methoxy-pyridin-4-yl)-7-methoxy-3-methyl-8-(2H-pyrazol-3-yl)-1,3-dihydroimidazo[4,5-c] quinolin-2-one]", "pIC50": "6.00 to 6.70"},
      {"smiles": "COc1cc2ncc3c(c2cc1-c1n[nH]cc1C)n(-c1cn(C)nc1C)c(=O)n3C", "note": "[compound 151, 1-(1,3-Dimethyl-1H-pyrazol-4-yl)-7-methoxy-3-methyl-8-(4-methyl-1H-pyrazol-3-yl)-1,3-dihydroimidazo[4,5-c] quinolin-2-one]", "pIC50": "> 6.70"},
      {"smiles": "[2H]C([2H])([2H])Oc1cncc(F)c1-n1c(=O)n(C)c2cnc3cc(OC)c(-c4cn(C)nc4C)cc3c21", "note": "[compound 150, 8-(1,3-Dimethylpyrazol-4-yl)-1-[3-fluoro-5-(trideuterio-methoxy)-4-pyridyl]-7-methoxy-3-methyl-imidazo-[4,5-c]quinolin-2-one]", "pIC50": "> 6.70"},
      {"smiles": "COc1cc2ncc3c(c2cc1-c1cnn(C)c1)n(-c1c(F)cncc1OCF)c(=O)n3C", "note": "[compound 148]", "pIC50": "> 6.70"},
      {"smiles": "COc1cc2ncc3c(c2cc1-c1cnn(C)n1)n(-c1c(F)cncc1OC)c(=O)n3C", "note": "[compound 127, 1-(3-Fluoro-5-methoxy-pyridin-4-yl)-7-methoxy-3-methyl-8-(2-methyl-2H-1,2,3-triazol-4-yl)-1,3-dihydroimidazo[4,5-c] quinolin-2-one]", "pIC50": "6.00 to 6.70"},
      {"smiles": "COc1cnc(-n2c(=O)n(C)c3cnc4cc(OC)c(-c5ccn[nH]5)cc4c32)c(F)c1", "note": "[compound 109, 1-(3-Fluoro-5-methoxy-pyridin-2-yl)-7-methoxy-3-methyl-8-(2H-pyrazol-3-yl)-1,3-dihydroimidazo[4,5-c] quinolin-2-one]", "pIC50": "> 6.70"},
      {"smiles": "COc1cc2ncc3c(c2cc1-c1cnn(C)c1)n(-c1c(F)cncc1C1CC1)c(=O)n3C", "note": "[compound 202, 1-(3-Cyclopropyl-5-fluoro-pyridin-4-yl)-7-methoxy-3-methyl-8-(1-methyl-1H-pyrazol-4-yl)-1,3-dihydro-imidazo[4,5-c]quinolin-2-one]", "pIC50": "6.00 to 6.70"},
      {"smiles": "COc1cc2ncc3c(c2cc1-c1cnn(C)c1)n(-c1ccc(F)cn1)c(=O)n3C", "note": "[Compound Example 50, 1-(5-Fluoropyridin-2-yl)-7-methoxy-3-methyl-8-(1-methyl-1H-pyrazol-4-yl)-1,3-dihydroimidazo[4,5-c]-quinolin-2-one]", "pIC50": "6.00 to 6.70"}
    ]}
  ]
}
